This note sets out measurements from patent US20060264442A1, “Methods for the treatment of ocular and neurodegenerative conditions in a mammal” (Allergan, Inc., priority 2005, published 2006).

Series [1] deals with retinal ganglion cells. Put plainly: Partial optic nerve (ON) injury model, retinal ganglion cell count. The following applies: for RGC survival / protective effect: count at twelve days. It is filed as in vivo, Sprague Dawley rats. The procedure: (§1) All procedures were conducted following AACUC protocols. Rats were anesthetized by intramuscular administration of Ketamine/Xylazine/Acepromazine/Saline cocktail, 5/2.5/1/1.5, milliliters respectively, at 1 ml/Kg.
Sprague Dawley rats weighing 300-350 g were used in this experiment. They were anesthetized with the above anesthetic cocktail and ON injury was applied. […] The tissues around the optic nerve were kept away from the optic nerve using jaw opening forceps. Calibrated forceps was put around the nerve about 3 to 4 mm from the globe and held for 30 seconds. The forceps were then removed, and the eyes treated with topical antibiotics at the site of incision. Drugs were then administered at selected doses via IP. Control animals received vehicle.
(§2) The effect of ON injury and elevated IOP on ganglion cells was determined by evaluating ganglion cell loss in whole mounted retinas. At the end of twelve days for ON injured and three months for COHT animals the ganglion cells were labeled by retrograde transport of Dextran Tetramethyl Rhodamine (DTMR, Molecular Probes, OR). […] A longitudinal cut (<1 mm) was made at about 3-4 mm distal from the globe. The optic nerve was sectioned and DTMR crystals were applied at the cut end. Twenty four hours after labeling the animals were euthanized and the eyes enucleated and fixed for 2 hours with 4% paraformaldehyde, then the retinas were removed and whole mounted. Cell counts were done using a Nikon microscope under fluorescent light with Rhodamine filter at 400×. Eight to sixteen regions were counted. Ganglion cell loss was calculated as percentage loss compared to unlasered control. Percent protection was calculated by comparing drug treated to vehicle treated eyes. Statistical analysis was done using two-tail student's t-test.

In series [2] the test system is retinal ganglion cells. As to the kind of experiment: COHT model, retinal ganglion cell count. The format is in vivo, Wistar rats. The procedure:
(§3) Wistar rats weighing 400-475 grams were used. The rats were anesthetized and ocular hypertension was induced by laser photocoagulation of the outflow pathway (mainly episcleral and limbal veins) using a Coherent Argon Laser (Coherent Novus 2000). The number of spots was approximately 150 after two laser treatments with one week interval. IOP was measured using Tono-Pen XL (Mentor O&O). Measurements were done prior to laser treatments to determine baseline and subsequent readings were done weekly.
as §2

Series [3] in a line: COHT model, ERG evaluation of retinal function. The following applies: topical 0.015% twice a day, at the end of 90 days. The format is in vivo, Wistar rats. The procedure: as §3
Electroretinographic evaluation of the retina was done only to OHT animals. The retinal function was measured 90 days after first laser treatment and prior retinal labeling. LKC system was used with the following parameters: low and high cut filters 0.3 and 500 Hz respectively, number of runs per sample were 10, flash intensity was −30, −20, −10 and −4 dB, Notch filter was off. Data analysis including OP's extraction from flash ERG was done using the system's software and noise was filtered prior calculation. Data represents the average of 5 animals.
At the end of 90 days retinal function was measured using electroretinography (ERG). […] Similarly the oscillatory potential responses were also preserved by prazosin treatment (FIG. 6).

Series [4] in a line: Chronic ocular hypertension (COHT) model, IOP measurement. The format is in vivo, Wistar rats. The following applies: topical 0.015% twice a day for 90 days, compared to vehicle treated eyes. The procedure:
as §1, §3
In this model prazosin was tested after topical application of 0.015% twice a day for 90 days. […] The IOP level reached a steady state after 40 days and it was maintained for the rest of the experimental period.

Regarding `COc1ccccc1N1CCN(CCCNc2c(C)c(=O)n(C)c(=O)n2C)CC1` [5-methyl-Urapedil, 5-methylurapadil], the “RGC survival / protective effect” value in the series with retinal ganglion cells [1] (10 μg/kg IP) is on record as “no protective effect”.
`COc1cc2nc(N3CCN(C(=O)C4CCCO4)CC3)nc(N)c2cc1OC` (stereo not drawn) [Terazosine, terazosin]: the values for the RGC protection result in the series on retinal ganglion cells [1] (0.1 μg/kg IP) and in the series with retinal ganglion cells [1] (1.0 μg/kg IP) were “Protection was observed” and “maximum effect”, respectively. Further, the “RGC survival / protective effect” value with retinal ganglion cells [1] (10 μg/kg IP) is reported as “no effect”.
With `COc1cc2nc(N3CCN(C(=O)c4ccco4)CC3)nc(N)c2cc1OC` [Prazosine, prazosin], the “Protection of RGC compared to vehicle treated group” value in the series with retinal ganglion cells [2] (0.015% topical, three months of IOP elevation) is 46%. The RGC decrease in the series on retinal ganglion cells [2] (0.015% topical, three months of IOP elevation, loss compared to unlasered control) is reported as 20%. Further, in series [3], the “ERG A and B wave amplitudes” value is “In vehicle treated animals both A and B wave amplitudes were smaller than those treated with prazosin”; the Oscillatory potential responses result is reported as “preserved”. For the same molecule, in the series with retinal ganglion cells [1] (10 μg/kg IP), the “RGC survival / protective effect” value is given as “almost two fold increase in RGC survival”. Moreover, the “Elevation of IOP” value in series [4] is “attenuated the elevation of IOP”.
With `Brc1c(NC2=NCCN2)ccc2nccnc12` [Brimonidine, brimonidine], the “RGC protection in COHT model (comparison in words)” value in the series with retinal ganglion cells [2] (dose not given) was “comparable to what we have observed with Brimonidine”. In the series on retinal ganglion cells [1] (100 μg/kg IP), the “RGC survival / protective effect” value is “protective action of Prazosine is similar to that of Brimonidine”.
